In US10463709B2, “Short synthetic peptide for treating diseases and/or conditions related to angiogenesis” (MacKay Memorial Hospital, priority 2015, dated 2019):
“Also recorded” adds a separate entry of the source. Ends that are not written are not given here.

Experiments:
RPMI8226 cells = experiment: MTT assay, VEGF-induced proliferation of RPMI8226 cells; type: cell-based
Method in brief: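 After 24 h serum starvation, cells seeded at 3×10^5/well and cultured 24 h in serum-free RPMI1640 with 25 μM peptide, VEGF serving as proliferation stimulus. Viability by MTT (4 h, 37° C), DMSO solubilisation 20 min, absorbance at 570 nm.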

HUVECs = experiment: Apoptosis assay (annexin V-FITC); type: cell-based; conditions: treatment for 16 hrs; annexin V-FITC staining
Description: The percentage of apoptotic HUVEC cells was assayed using TACS annexin V-FITC kit. The percentage of annexin V-positive cells was determined using in situ staining according to the manufacturer's instruction. The cell number was determined by counterstaining with Hoechst 33342. The nuclei in ten randomly selected fields of the three different chambers (˜7200 cells) were counted. Specimens were examined and photographed on a Zeiss epifluorescence microscope (×100, 10 fields/sample). Pictures were recorded on Zeiss software.

[1] = test system: VEGF-induced corneal neovascularization; experiment: Mouse corneal angiogenesis assay; type: in vivo, C57BL/6 mice; conditions: VEGF 200 ng; peptide 2.5 μg in micropellet
Description: Briefly, corneal micropockets were created on 6-week-old C57BL/6 mice by use of a needle. A micropellet of sucrose aluminum sulfate and hydron polymer containing 200 ng VEGF with or without 2.5 μg peptide was plated into each corneal pocket. Eyes were then photographed by a slit-lamp biomicroscope on day 7 after micropellet implantation. Ingrowth of the blood vessels into avascular cornea toward pellet was scored as positive response. The results were reported as positive corneas of total implant.

[2] = test system: human uterine sarcoma cells (MES-SA/Dx5); experiment: Tumorigenicity assay, xenografted human uterine sarcoma; type: in vivo, nude mice; conditions: 10 mg/kg intraperitoneal every 2 days for 10 days
Description: MES-SA/Dx5 cells (5×10^6 cells in 0.1 ml) were implanted by subcutaneous injections in the right flank region of female nude mice (n=24, each animal weighted about 20 g before the assay began). The experiments were approved by the Mackay Memorial Hospital Review Board for animal investigation. Treatment was initiated in animals when the tumor volume was above 80 mm^3. Vehicle DMSO, the present synthetic peptide or the control peptide (10 mg/kg) was administered by intraperitoneal injections every 2 days. Tumor progression was monitored for 10 days; size of the tumor was measured every 3 to 5 days with a caliper and the volume was calculated using the following formula: ½×length×width^2.
To this purpose, human uterine sarcoma cells (MES-SA/Dx5) were implanted in nude mice to induce tumor formation, and when the volume of each tumor reached 80 mm^3, animals were then treated with vehicle alone, or the 7-mer peptide at the dose of 10 mg/kg, every 2 days for 10 days. Results are depicted in FIG. 9.

B16-F10 melanoma cells = experiment: Experimental pulmonary metastasis in mice; type: in vivo, C57BL/6 mice
Method in brief: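 Female C57BL/6 mice (6 weeks) received 2×10^5 B16-F10 cells i.v. via tail vein. Peptide, control peptide (10 mg/kg) or DMSO vehicle given i.p. every 2 days, 5 mice per group. Visible surface lung colonies counted under a dissecting microscope on day 8.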

[3] = test system: STZ-induced diabetic mice; experiment: Vascular abnormalities in the retina of diabetic mice; type: in vivo
Method in brief: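 Diabetes induced by single i.p. STZ 150 mg/kg; mice with non-fasting glucose >500 mg/dl after 1 week used. Peptide 10 mg/kg or DMSO vehicle i.p. twice daily for 24 h, then BSA-FITC 100 mg/kg i.p. for 30 min; retinal lesions counted on flat mounts (average lesions/retina), FITC-BSA leakage by fluorometry (ex 488/em 535 nm) normalized to non-injected control retina.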

## NH2-Asp-Leu-Tyr-Arg-Val-Arg-Ser-COOH (DLYRVRS; not fully specified (N-terminus, C-terminus); printed as NH2-Asp-Leu-Tyr-Arg-Val-Arg-Ser-COOH) [7-mer]
RPMI8226 cells; 1 to 25 μM, RPMI8226 cells
  dose dependence of inhibitory action on VEGF-induced cell proliferation: dose dependent manner
RPMI8226 cells; VEGF 50 ng/ml, 25 μM peptide, 24 hrs, MTT
  effect on VEGF-induced proliferation of RPMI8226 cells: suppressed
HUVECs
  percentage of apoptotic HUVECs: 32.4±3.8%
[1]
  VEGF-induced neovascularization in the cornea: completely abolished
[2]
  tumor volume: 125±15.4 mm^3
B16-F10 melanoma cells; 10 mg/Kg intraperitoneal every 2 days
  effect on number of colonies on the surface of the lung / in vivo metastasis: capable of reducing the number of colonies; also recorded: may suppress in vivo metastasis
B16-F10 melanoma cells; 10 mg/Kg intraperitoneal every 2 days, day 8, n = 5
  No. lung colonies: 72 ± 16.0
B16-F10 melanoma cells; lung colonies vs vehicle, 10 mg/Kg
  Inhibition (%): 67.9%
[3]
  extravasation of FITC-BSA: may significantly prevent
[3]; 10 mg/kg intraperitoneal twice a day, 24 h
  number of vascular lesions in retina: 1.8±0.54
[3]; intraperitoneal
  hemorrhage in the retinal parenchyma: successfully blocked
[3]; leaked FITC-BSA in entire retina, vs vehicle
  Fluorescence Intensity (Fold): 0.29 ± 0.076 Fold
